Source: patent US5071839A, “Safe pharmaceutical composition for decreasing side effects of antiviral drugs and increasing the immune function (SDI) II” (priority 1987, dated 1991)
Like-named read-outs stand apart in the source and are kept apart here.

Legend:
[1] = cited from earlier work
DNA synthesis = details: cited from earlier work
white blood cells = assay: White blood cells assay (Example 8, Table 4); assay type: in vivo, mice; details: C: control, only antiviral drug (80 μg/ml); 7 days
Procedure: (§1) Male mice weight 18-20 g were used in the experimetns. The dosage of SDI is 5-10 mg/kg injected intraperitoneally. The normal mice were injected with same volume of normal saline. These injections were repeated daily for 3-5 days. On the last say, both antiviral drug and antiviral drug+SDI group were injected interaperitoneally.
Action of SDI II and antiviral drug on white blood cells was investigated by means of white blood cells assay. […] Time of treatment is 7 days.

[2] = system: bone marrow stem cells (CFU-S); assay: Spleen colony assay, bone marrow stem cells (CFU-S) (Example 6, Table 2); assay type: in vivo, mice; details: C: control, only antiviral drug (80 μg/ml)
Procedure: as §1
Effects of SDI on hemopoietic system were investigated.

T lymphocytes = assay: Formation of rosette (T lymphocytes with sheep erythrocytes) (Example 9, Table 5); assay type: cell-based, mice; details: C: control, only antiviral drug (80 μg/ml)
Procedure: as §1
a. Obtain venous blood in heparin (10 IU ml^-1) and perform a total and differential leucocyte count.
b. Isolate lymphocyte fraction. Count vaiable lymphocytes calculate and record total yield. Adjust to 5×10^5 lymphocytes ml^-1.
c. Wash sheep erythrocytes by centrifugation (400 g for 10 minutes at room temperature) and ajust to a 2.5% v/v suspension in PBS.
d. Mix 0.1 ml of the lymphocyte suspension with 0.1 ml of sheep erythrocytes and centrifuge at 225 g for 5 minutes at room temperature.
e. Incubate for 2 hours at 4° C.
f. Add 50 μl of fetal bovine serum (FBS).
g. Resuspend cell mixture by gently tapping the tube and pipette a sample into a haemocytomer.
h. Count 200 lymphocytes and determine the percentage of cell with 3 or more erythrocytes attached. (Three are T lymphocytes).
i. Calculate the absolute number of T lymphocytes ml^-1 of original blood.

lymphocytes = assay: Lymphoblastoid transformation test, 3H-TdR (Example 7, Table 3); assay type: cell-based, mice; details: C: control, only antiviral drug (80 μg/ml)
Procedure: as §1
1. Reagents and conditions for cell culture
a. Culture media--RPMI 1640, madium 199 minimal essential medium (Eagle).
b. 37° C. to maintain the pH of the medium at 7.31.
c. Serum--generally 15-20% fetal bovine serum was incorporated.
d. Gaseous phase 5% CO2 in air;
e. Cell concentration--generally 1-2×10^6 /ml;
f. Stimulants--20 μg/ml for phytoagglutinin containing polysaccharide (PHA-M) or 10 μg/ml for polysaccharide-free purified phytoagglutinin (PHA-P).
2. Measured by liquid scintillation
a. The conditions of cell culture are same as above. ^3 H-TdR was added after 48 hours of incubation at a final concentration of 2 μCi/ml and continue the incubation for 24 hours.
b. Wash the cells twice with cold normal saline and the erythrocytes were lysed by addition of distilled-water and equal volume of 3.6% NaCi was then added. The intact lymphocytes and add 2 ml of 10% trichloroacetic acid to precipitate the protein. Wash twice with normal saline. Add 2 ml of ethanol: ether (1:1) to wash once. 0.2 ml of formic acid was then added for digestion till the precipitate was dissolved.
c. Add 4 ml of scintillation fluid to 0.1 ml of the final sample and count in a liquid scintillation counter.

peritoneal macrophage = assay: Phagocytosis of peritoneal macrophage of mice, 51Cr chick red blood cells (Example 10, Table 6); assay type: cell-based; details: C: control, only antiviral drug (80 μg/ml)
Procedure: as §1
Count the number of macrophages in the peritoneal exudate of mice and adjust to 1×10^7 cell/ml with normal saline. Add 0.1 ml of the macrophage suspension. i.e. 1×10^6 cells to each well on the plastic plate for test. Lable the chick red blood cell with ^51 Cr. Suspend the labelled chick red blood cell and adjust to 1.5×10^8/ml, add 0.1 ml, i.e. 1.5×10^7, to each well. Incubate at 37° C. for 30 minutes. Wash thoughly to remove the free chick red blood cells. Count each well in a γ-counter.

YAC-1 or EAC cells = assay: Natural killer cell cytotoxicity, 51Cr release from YAC-1 or EAC cells (Example 5, Table 1); assay type: cell-based, mice; details: C: control, only antiviral drug (80 μg/ml); E:T 100:1
Procedure: as §1
Natural Killer (NK) Cells can destrou many viruse. NK cells may be important in limiting early spread of virus, also Natural Killer Cytotoxicity is effective antiviral agent. NK cell cytoxicity was tested by chromium release which assay using ^51 Cr-labelled YAC-1 or EAC cell line as targer cells. […] The effector cell to target cell (E:T) radio is 100:1. After the incubation the tuber were spun, the amount of ^51 Cr-released in 0.1 ml supernatant was counted by r-scintillation counter. Percent cytotoxicity was calculated from the following formula: [formula]

SMILES: Nc1nc2c(ncn2COCCO)c(=O)[nH]1 [ACV, Acyclovir]
- side effects (marrow, blood) ([1]; various degree): bone-marrow suppression, megaloblastic anemia and recreasing total white blood cells

SMILES: Nc1ncn([C@H]2C[C@H](O)[C@@H](CO)O2)c(=O)n1 [AZCdR, 5'-Aza-2'-deoxycytidine]
- side effects (marrow, blood) ([1]; various degree): bone-marrow suppression, megaloblastic anemia and recreasing total white blood cells

SMILES: Cc1cn([C@H]2C[C@H](N=[N+]=[N-])[C@@H](CO)O2)c(=O)[nH]c1=O [AZT, 3'-Azido-3'-deoxythymidine]
- DNA synthesis (DNA synthesis): blocker of DNA synthesis
- side effects (marrow, blood) ([1]; various degree): bone-marrow suppression and megaloblastic anemia, and decreasing total white blood cells

SMILES: O=c1[nH]c(=O)n([C@H]2C[C@H](O)[C@@H](CO)O2)cc1I [IDU, Idoxuridine]
- side effects (marrow, blood) ([1]; in vivo): bone-marrow suppression, megaloblastic anemia and recreasing total white blood cells

SMILES: Nc1ccn([C@@H]2O[C@H](CO)[C@@H](O)[C@@H]2O)c(=O)n1 [Ara-C, Cytarabine]
- White blood cells (white blood cells): 4200 mL⁻¹
- Mean CFU ± SD [2]: 3.8
- Rate of formed rosette (T lymphocytes): 23.7%
- CPM (lymphoblastoid transformation) (lymphocytes): 654 CPM
- CPM (phagocytosis of peritoneal macrophage) (peritoneal macrophage): 512 CPM
- side effects (marrow, blood) ([1]; various degree): bone-marrow suppression, megaloblastic anemia and recreasing total white blood cells

SMILES: N=c1ccn2c(n1)O[C@H]1[C@H](O)[C@@H](CO)O[C@H]12 [C.C., Cyclocytidine]
- side effects (marrow, blood) ([1]; various degree): bone-marrow suppression, megaloblastic anemia and recreasing total white blood cells

SMILES: Nc1ncnc2c1ncn2[C@H]1CC[C@@H](CO)O1 [DDA, 2',3'-Dideoxyadenoside]
- White blood cells (white blood cells): 4200 mL⁻¹
- Mean CFU ± SD [2]: 4.2
- Rate of formed rosette (T lymphocytes): 22.4%
- CPM (lymphoblastoid transformation) (lymphocytes): 502 CPM
- CPM (phagocytosis of peritoneal macrophage) (peritoneal macrophage): 489 CPM
- % Cytotoxicity (NK cells) (YAC-1 or EAC cells): 18.0%
- side effects (marrow, blood) ([1]; various degree): bone-marrow suppression, megaloblastic anemia and recreasing total white blood cells

SMILES: Nc1ccn([C@H]2CC[C@@H](CO)O2)c(=O)n1 [DDC, 2',3'-Dideoxycytidine]
- side effects (marrow, blood) ([1]; in vivo): bone-marrow suppression, megaloblastic anemia and recreasing total white blood cells

SMILES: NC(=O)c1ncn([C@@H]2O[C@H](CO)[C@@H](O)[C@H]2O)n1 [Rib, Ribofuranosyl-Trazole-Carboxamide]
- White blood cells (white blood cells): 4900 mL⁻¹
- Mean CFU ± SD [2]: 4.2
- Rate of formed rosette (T lymphocytes): 28.7%
- CPM (lymphoblastoid transformation) (lymphocytes): 763 CPM
- CPM (phagocytosis of peritoneal macrophage) (peritoneal macrophage): 540 CPM
- % Cytotoxicity (NK cells) (YAC-1 or EAC cells): 22.3%
- side effects (marrow, blood) ([1]; various degree): bone-marrow suppression, megaloblastic anemia and recreasing total white blood cells

SMILES: O=P1(N(CCCl)CCCl)NCCCO1 (centres unmarked) [CP, Cyclophosphamide]
- White blood cells (white blood cells): 5300 mL⁻¹
- Mean CFU ± SD [2]: 4.0
- Rate of formed rosette (T lymphocytes): 20.7%
- CPM (lymphoblastoid transformation) (lymphocytes): 620 CPM
- CPM (phagocytosis of peritoneal macrophage) (peritoneal macrophage): 481 CPM
- % Cytotoxicity (NK cells) (YAC-1 or EAC cells): 20.7%
- side effects (marrow, blood) ([1]; various degree): bone-marrow suppression, megaloblastic anemia and recreasing total white blood cells

SMILES: O=c1cnn([C@@H]2O[C@H](CO)[C@@H](O)[C@H]2O)c(=O)[nH]1 [AZU, 6-Azauridune]
- side effects (marrow, blood) ([1]; various degree): bone-marrow suppression, megaloblastic anemia and recreasing total white blood cells

SMILES: Nc1ncn([C@@H]2O[C@H](CO)[C@@H](O)[C@H]2O)c(=O)n1 [AZC]
- White blood cells (white blood cells): 3800 mL⁻¹
- Mean CFU ± SD [2]: 3.1
- Rate of formed rosette (T lymphocytes): 19.8%
- CPM (lymphoblastoid transformation) (lymphocytes): 441 CPM
- CPM (phagocytosis of peritoneal macrophage) (peritoneal macrophage): 401 CPM
- % Cytotoxicity (NK cells) (YAC-1 or EAC cells): 11.2%
